From US8946201B2, “Methods for inhibiting TGF-β” (Saint Louis University, priority 2007, dated 2015)

Experiments:
[1] = system: Smad2 nuclear translocation; test: Smad2 nuclear translocation, indirect immunofluorescent staining, Mv1Lu cells; format: cell-based, mink; settings: 50 μg/ml 1 hr, then 50 pM TGF-β1 30 min
Protocol: Cells were treated with increasing concentrations of cholesterol, as indicated (A, B, C), 50 μg protein/ml LDL (D), 5 μg protein/ml VLDL (D) or 50 μg/ml cholesterol (E) at 37° C. for 1 hr and then further incubated with 50 pM TGF-β1 for 30 min. […] Smad2 nuclear translocation was analyzed by indirect immunofluorescent staining using P-Smad2 antibody and rhodamine-labeled 2nd antibody (E). Rhodamine fluorescence represents P-Smad2 staining (a,b,c) whereas the nuclei were stained by DAPI staining (d,e,f).
For indirect immunofluorescent staining, cells grown on cover glass were fixed in cold 100% methanol and then incubated with antibody to P-Smad2 overnight. The antigen was visualized by incubation with Rhodamine-conjugated goat antibody to rabbit IgG followed by immunofluorescence microscopy.
To test this possibility, we determined the effect of cholesterol treatment on Smad2 phosphorylation and nuclear translocation, both of which are key signaling events, leading to TGF-β responsiveness. […] To determine the effect of cholesterol on Smad2 nuclear translocation, Mv1Lu cells were treated with 50 μg/ml cholesterol at 37° C. for 1 hr and then further incubated with and without 50 pM TGF-β1 at 37° C. for 30 min. These cells were subjected to immunofluorescent staining using anti-P-Smad2 antibody and nuclear DAPI (4′,6-diamidine-2-phenylindole dihydrochloride) staining.

TβR-II = test: TGF-β1-induced degradation of TβR-II, Western blot; format: cell-based
Protocol: (E) Cells were treated with several concentrations of cholesterol (a,b) or LDL (c,d) as indicated in the presence and absence of 1% β-CD at 37° C. for 1 hr and further incubated with 50 pM TGF-β for 1 hr. The cell lysates were then subjected to 7.5% SDS-PAGE and Western blot analysis using antibodies to TβR-II and α-actin (a,c). The relative intensities of TβR-II and α-actin on the blot were quantified by densitometry (b,d). The ratio of the relative intensities of TβR-II and α-actin in cells treated without TGF-β1 was taken as the 100% level of TβR-II.
(F, G) Cells were treated with or without 1 μM lovastatin/fluvastatin or nystatin (25 μg/ml)/cholesterol (50 μg/ml) at 37° C. for 16 hr or 1 hr, respectively. The treated cells were directly analyzed by sucrose density gradient ultracentrifugation analysis (F) or further incubated with 50 pM TGF-β at 37° C. for several time periods as indicated (G). Western blot analysis of the sucrose density gradient fractions (F) and of TGF-β1-treated cell lysates (G) was performed using antibody to TβR-II. The relative levels of TβR-II and α-actin were quantified by densitometry. Fractions ⅘ and 7 represent lipid raft/caveolae and non-lipid raft fractions, respectively. […] The quantitative data from three independent analyses is shown (G, bottom). […]
Cells grown to near confluence on 12-well cluster dishes were treated with cholesterol or LDL in serum-free DMEM (vol.=0.5 ml/well) at 37° C. for 1 hr. […] Treated cells were lysed and cell lysates were analyzed by 7.5% SDS-PAGE and Western blot analysis using anti-Smad2, anti-P-Smad2, anti-caveolin-1, anti-TβR-I (alk5) or anti-TβR-II antibodies as described previously (30). […]
Lipid raft/caveolae-mediated endocytosis of receptor-bound TGF-β results in rapid degradation of TGF-β1 and suppression of TGF-β responsiveness. […] To test this, we analyzed the lipid raft/caveolae and non-lipid raft localization of TβR-I and TβR-II in the plasma membrane of cells treated with or without cholesterol (50 μg/ml) using sucrose density gradient ultracentrifugation analysis. […]

hair growth = test: Hair growth assay in mice; format: in vivo, mice (C57BL/6); settings: lotion containing 0.025% cholesterol, topical every two days
Protocol: FIG. 7. Hair growth promotion in mice topically treated with cholesterol. Mice (female, 6 weeks old) were subjected to hair removal by using hair remover lotion Nair®. The areas after hair removal were treated with the lotion containing vehicle only or 0.025% cholesterol on the first day and every other two days. Photographs were taken immediately after hair removal and prior to topical application with vehicle (a,b,c) or lotion containing cholesterol (d,e,f). Photographs were taken at days 0 (a,d), 10 (b,e) and 18 (c,f). The dark color indicates an early stage of hair growth.
Hair at the back of female mice (C57BL/6, 6-8 weeks old, were removed by using Nair® lotion hair remover. Lotions containing 0.025 and 0.00625% cholesterol and vehicle only were topically applied onto the area where the hair was removed. On the first day and every other day, photographs were taken prior to administration of the lotions. On day 18, the re-grown hair was shaved and weighed.
The hair growth cycle is coordinated with complex processes that are dependent on the interactions of epithelial and dermal components (follicle keratinocytes and dermal papilla cells). The hair growth cycle includes two major phases, growing phase (anagen) and regression phase (catagen). The length and size of hair are dependent on the anagen term in the hair cycle. […]

## CC(C)CCC[C@@H](C)[C@H]1CC[C@H]2[C@@H]3CC=C4C[C@@H](O)CC[C@]4(C)[C@H]3CC[C@]12C [cholesterol]
[1]
  effect on Smad2 nuclear translocation: suppressed
TβR-II; cholesterol 10 μg/ml or LDL 15 μg protein/ml, without TGF-β1
  TβR-II degradation, treatment alone: did not induce
TβR-II; cholesterol 10 μg/ml, LDL 15 μg protein/ml, 1 hr, then 50 pM TGF-β 1 hr
  enhancement of TGF-β1-induced degradation of TβR-II: 70%
Hair growth; day 10
  hair growth: the hair started to grow
Hair growth; day 18
  hair growth: fully grown hair
